Experimental data as given in patent US10947252B2, “Inhibitors of KEAP1-Nrf2 protein-protein interaction” (Janssen Pharmaceutica NV, priority 2018, dated 2021).

Legend:
[1] = molecular target: Kelch domain of human KEAP1 (321-624 aa) (Homo sapiens (Human), UniProt Q14145); test: KEAP1 KELCH ThermoFluor binding assay; conditions: KEAP Kelch […], 1,8-ANS, pH 7.0, average of results obtained, read-out: Tf Kd;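 note: Ligand-induced melting temperature shift of E. coli-expressed KEAP1 Kelch protein, Kd estimated from concentration-response curves of ΔTm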
Sequence of Kelch domain of human KEAP1 (321-624 aa) (Q14145 321-624): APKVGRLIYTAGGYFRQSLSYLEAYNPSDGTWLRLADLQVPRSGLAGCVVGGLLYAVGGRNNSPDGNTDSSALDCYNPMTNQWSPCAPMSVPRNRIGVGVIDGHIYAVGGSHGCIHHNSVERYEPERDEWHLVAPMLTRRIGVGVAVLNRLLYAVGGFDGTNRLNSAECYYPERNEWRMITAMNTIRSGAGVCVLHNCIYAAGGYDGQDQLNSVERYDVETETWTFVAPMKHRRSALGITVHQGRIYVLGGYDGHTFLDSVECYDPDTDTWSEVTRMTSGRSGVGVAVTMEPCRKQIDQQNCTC

[2] = test system: Glo-Response ARE-luc2P HEK293 cell line; test: ARE luciferase reporter cell-based assay; conditions: Homo sapiens, HEK293, 24 h, average of results obtained;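 note: luciferase signal tracks Nrf2 activation of the ARE once compounds disrupt KEAP1-Nrf2 binding, read with One-Glo reagent, DMSO serving as low control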

SMILES | Kd [1] | EC50 [2]
CCn1nnc2c(C)c([C@@H](c3ccc(C)c(CN4CC5(CCOCC5)Oc5ncc(C)cc5S4(=O)=O)n3)C(C)(C)C(=O)O)ccc21 (single isomer, unassigned) [Example 558, (*R)-3-(1-Ethyl-4-methyl-1H-benzo[d][1,2,3]triazol-5-yl)-2,2-dimethyl-3-(5-methyl-6-((8′-methyl-1′,1′-dioxido-2,3,5,6-tetrahydrospiro[pyran-4,4′-pyrido[2,3-b][1,4,5]oxathiazepin]-2′(3′H)-yl)methyl)pyridin-2-yl)propanoic Acid] | 343 nM | 195 nM
Cc1cnc2c(c1)S(=O)(=O)N(Cc1cc([C@@H](c3ccn4c(C(F)F)nnc4c3C)C(C)(C)C(=O)O)ccc1C)CC1(CC1)O2 (single isomer, unassigned) [Example 560, (*S)-3-(3-(Difluoromethyl)-8-methyl-[1,2,4]triazolo[4,3-a]pyridin-7-yl)-2,2-dimethyl-3-(4-methyl-3-((8′-methyl-1′,1′-dioxidospiro[cyclopropane-1,4′-pyrido[2,3-b][1,4,5]oxathiazepin]-2′(3′H)-yl)methyl)phenyl)propanoic Acid] | < 1 nM | 1.9 nM
Cc1cnc2c(c1)S(=O)(=O)N(Cc1cc([C@H](c3ccn4c(C(F)F)nnc4c3C)C(C)(C)C(=O)O)ccc1C)CC1(CC1)O2 (single isomer, unassigned) [Example 561, (*R)-3-(3-(Difluoromethyl)-8-methyl-[1,2,4]triazolo[4,3-a]pyridin-7-yl)-2,2-dimethyl-3-(4-methyl-3-((8′-methyl-1′,1′-dioxidospiro[cyclopropane-1,4′-pyrido[2,3-b][1,4,5]oxathiazepin]-2′(3′H)-yl)methyl)phenyl)propanoic Acid] | 52.5 nM | 258 nM
Cc1ncc([C@@H](CC(=O)O)c2ccn3c(C(F)(F)F)nnc3c2C)cc1CN1CC2(CCOCC2)Oc2ncccc2S1(=O)=O (single isomer, unassigned) [Example 562, (*S)-3-(5-((1′,1′-Dioxido-2,3,5,6-tetrahydrospiro[pyran-4,4′-pyrido[2,3-b][1,4,5]oxathiazepin]-2′(3′H)-yl)methyl)-6-methylpyridin-3-yl)-3-(8-methyl-3-(trifluoromethyl)-[1,2,4]triazolo[4,3-a]pyridin-7-yl)propanoic Acid] | 14.8 nM | 2490 nM
Cc1cnc2c(c1)S(=O)(=O)N(Cc1cc([C@@H](CC(=O)O)c3ccn4c(C(F)(F)F)nnc4c3C)cnc1C)CC1(CC1)O2 (single isomer, unassigned) [Example 563, (*S)-3-(8-Methyl-3-(trifluoromethyl)-[1,2,4]triazolo[4,3-a]pyridin-7-yl)-3-(6-methyl-5-((8′-methyl-1′,1′-dioxidospiro[cyclopropane-1,4′-pyrido[2,3-b][1,4,5]oxathiazepin]-2′(3′H)-yl)methyl)pyridin-3-yl)propanoic Acid] | 21 nM | > 20000 nM
Cc1ncc([C@H](CC(=O)O)c2ccn3c(C(F)(F)F)nnc3c2C)cc1CN1CC2(CCOCC2)Oc2ncccc2S1(=O)=O (single isomer, unassigned) [Example 564, (*R)-3-(5-((1′,1′-Dioxido-2,3,5,6-tetrahydrospiro[pyran-4,4′-pyrido[2,3-b][1,4,5]oxathiazepin]-2′(3′H)-yl)methyl)-6-methylpyridin-3-yl)-3-(8-methyl-3-(trifluoromethyl)-[1,2,4]triazolo[4,3-a]pyridin-7-yl)propanoic Acid] | 323 nM | > 20000 nM
Cc1cnc2c(c1)S(=O)(=O)N(Cc1cc([C@H](CC(=O)O)c3ccn4c(C(F)(F)F)nnc4c3C)cnc1C)CC1(CC1)O2 (single isomer, unassigned) [Example 565, (*R)-3-(8-Methyl-3-(trifluoromethyl)-[1,2,4]triazolo[4,3-a]pyridin-7-yl)-3-(6-methyl-5-((8′-methyl-1′,1′-dioxidospiro[cyclopropane-1,4′-pyrido[2,3-b][1,4,5]oxathiazepin]-2′(3′H)-yl)methyl)pyridin-3-yl)propanoic Acid] | 59.4 nM | > 20000 nM
Cc1ncc([C@H](c2ccn3c(C(F)(F)F)nnc3c2C)C(C)(C)C(=O)O)cc1CN1CC2(CCOCC2)Oc2ncccc2S1(=O)=O (single isomer, unassigned) [Example 570, (*S)-3-(5-((1′,1′-Dioxido-2,3,5,6-tetrahydrospiro[pyran-4,4′-pyrido[2,3-b][1,4,5]oxathiazepin]-2′(3′H)-yl)methyl)-6-methylpyridin-3-yl)-2,2-dimethyl-3-(8-methyl-3-(trifluoromethyl)-[1,2,4]triazolo[4,3-a]pyridin-7-yl)propanoic Acid] | < 1 nM | 1120 nM
Cc1ncc([C@@H](c2ccn3c(C(F)(F)F)nnc3c2C)C(C)(C)C(=O)O)cc1CN1CC2(CCOCC2)Oc2ncccc2S1(=O)=O (single isomer, unassigned) [Example 571, (*R)-3-(5-((1′,1′-dioxido-2,3,5,6-tetrahydrospiro[pyran-4,4′-pyrido[2,3-b][1,4,5]oxathiazepin]-2′(3′H)-yl)methyl)-6-methylpyridin-3-yl)-2,2-dimethyl-3-(8-methyl-3-(trifluoromethyl)-[1,2,4]triazolo[4,3-a]pyridin-7-yl)propanoic Acid] | 5850 nM | > 20000 nM
Cc1cnc2c(c1)S(=O)(=O)N(Cc1cc([C@@H](c3ccn4c(C(F)F)nnc4c3C)C(C)(C)C(=O)O)ccc1C)CC1(CCOCC1)O2 (single isomer, unassigned) [Example 576, (*S)-3-(3-(Difluoromethyl)-8-methyl-[1,2,4]triazolo[4,3-a]pyridin-7-yl)-2,2-dimethyl-3-(4-methyl-3-((8′-methyl-1′,1′-dioxido-2,3,5,6-tetrahydrospiro[pyran-4,4′-pyrido[2,3-b][1,4,5]oxathiazepin]-2′(3′H)-yl)methyl)phenyl)propanoic Acid] | < 1 nM | 2.34 nM
Cc1cnc2c(c1)S(=O)(=O)N(Cc1cc([C@H](c3ccn4c(C(F)F)nnc4c3C)C(C)(C)C(=O)O)ccc1C)CC1(CCOCC1)O2 (single isomer, unassigned) [Example 577, (*R)-3-(3-(Difluoromethyl)-8-methyl-[1,2,4]triazolo[4,3-a]pyridin-7-yl)-2,2-dimethyl-3-(4-methyl-3-((8′-methyl-1′,1′-dioxido-2,3,5,6-tetrahydrospiro[pyran-4,4′-pyrido[2,3-b][1,4,5]oxathiazepin]-2′(3′H)-yl)methyl)phenyl)propanoic Acid] | 718 nM | 768 nM
Cc1ccc([C@@H](c2ccn3c(C(F)F)nnc3c2C)C(C)(C)C(=O)O)cc1CN1CC2(CCOCC2)Oc2nc(OCCN3CCOCC3)ccc2S1(=O)=O (single isomer, unassigned) [Example 579, (*S)-3-(3-(Difluoromethyl)-8-methyl-[1,2,4]triazolo[4,3-a]pyridin-7-yl)-2,2-dimethyl-3-(4-methyl-3-((7′-(2-morpholinoethoxy)-1′,1′-dioxido-2,3,5,6-tetrahydrospiro[pyran-4,4′-pyrido[2,3-b][1,4,5]oxathiazepin]-2′(3′H)-yl)methyl)phenyl)propanoic Acid] | < 1 nM | 27.8 nM
Cc1ccc([C@H](c2ccn3c(C(F)F)nnc3c2C)C(C)(C)C(=O)O)cc1CN1CC2(CCOCC2)Oc2nc(OCCN3CCOCC3)ccc2S1(=O)=O (single isomer, unassigned) [Example 580, (*R)-3-(3-(Difluoromethyl)-8-methyl-[1,2,4]triazolo[4,3-a]pyridin-7-yl)-2,2-dimethyl-3-(4-methyl-3-((7′-(2-morpholinoethoxy)-1′,1′-dioxido-2,3,5,6-tetrahydrospiro[pyran-4,4′-pyrido[2,3-b][1,4,5]oxathiazepin]-2′(3′H)-yl)methyl)phenyl)propanoic Acid] | 1640 nM | 3240 nM
COc1ccc2c(n1)OC1(CCOCC1)CN(Cc1cc([C@@H](c3ccn4c(C(F)F)nnc4c3C)C(C)(C)C(=O)O)ccc1C)S2(=O)=O (single isomer, unassigned) [Example 582, (*S)-3-(3-(Difluoromethyl)-8-methyl-[1,2,4]triazolo[4,3-a]pyridin-7-yl)-3-(3-((7′-methoxy-1′,1′-dioxido-2,3,5,6-tetrahydrospiro[pyran-4,4′-pyrido[2,3-b][1,4,5]oxathiazepin]-2′(3′H)-yl)methyl)-4-methylphenyl)-2,2-dimethylpropanoic Acid] | < 1 nM | 1.43 nM
COc1ccc2c(n1)OC1(CCOCC1)CN(Cc1cc([C@H](c3ccn4c(C(F)F)nnc4c3C)C(C)(C)C(=O)O)ccc1C)S2(=O)=O (single isomer, unassigned) [Example 583, (*R)-3-(3-(Difluoromethyl)-8-methyl-[1,2,4]triazolo[4,3-a]pyridin-7-yl)-3-(3-((7′-methoxy-1′,1′-dioxido-2,3,5,6-tetrahydrospiro[pyran-4,4′-pyrido[2,3-b][1,4,5]oxathiazepin]-2′(3′H)-yl)methyl)-4-methylphenyl)-2,2-dimethylpropanoic Acid] | 1610 nM | 766 nM
Cc1cnc2c(c1)S(=O)(=O)N(Cc1cc([C@H](c3ccn4c(C(F)(F)F)nnc4c3C)C(C)(C)C(=O)O)cnc1C)CC1(CCOCC1)O2 (single isomer, unassigned) [Example 585, (*S)-2,2-Dimethyl-3-(8-methyl-3-(trifluoromethyl)-[1,2,4]triazolo[4,3-a]pyridin-7-yl)-3-(6-methyl-5-((8′-methyl-1′,1′-dioxido-2,3,5,6-tetrahydrospiro[pyran-4,4′-pyrido[2,3-b][1,4,5]oxathiazepin]-2′(3′H)-yl)methyl)pyridin-3-yl)propanoic Acid] | < 1 nM | 253 nM
Cc1cnc2c(c1)S(=O)(=O)N(Cc1cc([C@@H](c3ccn4c(C(F)(F)F)nnc4c3C)C(C)(C)C(=O)O)cnc1C)CC1(CCOCC1)O2 (single isomer, unassigned) [Example 586, (*R)-2,2-Dimethyl-3-(8-methyl-3-(trifluoromethyl)-[1,2,4]triazolo[4,3-a]pyridin-7-yl)-3-(6-methyl-5-((8′-methyl-1′,1′-dioxido-2,3,5,6-tetrahydrospiro[pyran-4,4′-pyrido[2,3-b][1,4,5]oxathiazepin]-2′(3′H)-yl)methyl)pyridin-3-yl)propanoic Acid] | 6380 nM | > 20000 nM
